Experimental findings from patent US7829529B2, “Use of factor VIIa or a tissue factor antagonist for regulating gene expression and cell migration or chemotaxis” (Novo Nordisk Health Care A/G, priority 1999, dated 2010) are described below.

For test [1], the system named is Human foreskin fibroblasts AG1523. In words: Chemotaxis assay, leading front technique in modified Boyden chamber, towards PDGF-BB. Type of test: cell-based. The note with it: for effect on FVIIa/TF-mediated chemotactic response to PDGF-BB: 30 min pretreatment; for effect on enhanced migration response (hyperchemotaxis) transduced by FVIIa/TF: TAP 0.2-10 μM, Hirudin 5 U/ml; for effect on migration of fibroblasts in response to PDGF without FVIIa: no FVIIa present. How it is done:
Fibroblasts expressing active TF (FIG. 1A and FIG. 1B) were incubated with 100 nM of FVIIa and seeded in the upper part of the modified Boyden chamber; while media containing 10% FBS and PDGF-BB at different concentrations were added below the 150 μm micropore filter. The migration of the cells under conditions where medium containing 10% FBS without PDGF-BB was added below the filter was used as a measure of random migration, and calculated as 100% migration. A significant migration response was recorded at a concentration of 0.01 ng/ml PDGF-BB in cells stimulated by FVIIa compared to 1 ng/ml PDGF-BB for cells not ligated with FVIIa, i.e. a 100-fold difference in concentration (FIG. 2). At 0.01-0.1 ng/ml PDGF-BB the migration response to FVIIa increased dose dependently, starting at 25 nM and with a maximal effect at 50-100 nM FVIIa (FIG. 3A-D). […] To test whether the proteolytically active FVIIa was mandatory for the hyperchemotactic response to PDGF-BB, fibroblasts were also incubated with 100 nM FFR-FVIIa and assayed in the Boyden chamber in the same way (FIG. 2).
An irrelevant monoclonal IgG antibody did neither prevent hyperchemotaxis induced by FVIIa nor the inhibition of the migration response induced by FFR-FVIIa (data not shown).
Chemotaxis assay. The migration response of fibroblasts was assayed by means of the leading front technique in a modified Boyden chamber, as previously described (Siegbahn, A., Hanimacher, A., Westermark, B., Heldin, C-H. Differential effects of the various isoforms of platelet-derived growth factor on chemotaxis of fibroblasts, monocytes, and granulocytes. J. Clin. Invest. 85, 916-920 (1990) and Nistér, M., Hammacher, A., Mellström, K., Siegbahn, A., Rönnstrand, L., Westermark, B., Heldin, C-H. A glioma-derived PDGF A chain homodimer has different functional activities from a PDGF AB heterodimer purified from human platelets. Cell 52, 791-799 (1988)). Micropore filters (pore size 8 μm) were coated with a solution of type-1 collagen at room temperature over night. The filters were air dried for 30 minutes immediately before use. Human foreskin fibroblasts AG1523, were grown to confluence in Eagle's MEM supplemented with 10% FBS. The cells were detached by trypsinization (2.5 mg/ml for 10 minutes at 37° C.) and suspended in Eagle's MEM with 10% FBS. The fibroblasts were incubated for 10 minutes with or without FVIIa or FFR-FVIIa before assay. One hundred microliters of the cell suspension (2×10^5 cells/ml) was added above the filter of the Boyden chamber. PDGF-BB was diluted in assay media (Eagle's MEM with 10% FBS) and added below the filter in the chamber. The cells were incubated for 6 hours at 37° C. in a humidified chamber containing 95% air/5% CO2. FVIIa or FFR-FVIIa were present during the entire experiment. The filters were then removed, fixed in ethanol, stained with Mayer's Hemalun, and mounted. Migration was measured as the distance of the two furthest migrating fibroblast nuclei of one high-power field (12.5×24) in focus. The migration distance in each filter was calculated as the mean of the readings of at least three different parts of the filter. Experiments were performed with two to four separate filters for each concentration of chemoattractant. For each set of experiments, the migration of fibroblasts toward the assay media served as control.
In cases when anti-TF monoclonal antibodies or inhibitors to coagulation factors, TAP and Hirudin, were used, cells were preincubated for 10 minutes with these agents, then with or without FVIIa or FFR-FVIIa before the chemotaxis assay was performed. Antibodies, TAP or Hirudin were also present during the entire chemotaxis experiment. In experiments where the effects on the migration response of different inhibitors, LY294002, U73122 or U73343, were tested, cells were preincubated for 30 minutes with the inhibitors at indicated concentrations, and the inhibitors were also present throughout the experiments.

Test [2] concerns Cyr61 mRNA in WI-38 cells. In words: Northern blot analysis of Cyr61 expression. Type of test: cell-based, human. The note with it: for effect on VIIa-induced expression of Cyr61: 30 min preincubation, then VIIa 5 μg/ml 45 min, TAP 200 nM, actinomycin D and cycloheximide 10 μg/ml. How it is done:
Northern Blot Analysis. Total RNA was prepared using TRIZOL reagent from quiescent monolayer of WI-38 cells that were exposed to VIIa and other materials as described in Results. Northern blot analysis was carried out using standard procedure. Briefly, 10 μg of total RNA was size fractionated by gel electrophoresis in 1% agarose/6% formaldehyde gels and transferred onto the nitrocellulose membrane by a capillary blot method. Northern blots were prehybridized at 42° C. with a solution containing 50% formamide, 5×SSC, 50 mM Tris.HCl, pH 7.5, 0.1% sodium pyrophosphate, 1% SDS, 1% polyvinylpyrrolidone, 1% Ficoll, 25 mM EDTA, 100 μg/ml denatured salmon sperm DNA and 1% BSA and hybridized with ^32P-labeled Cyr61 cDNA probe (106 cpm/ml). The hybridized membranes were exposed to either Dupont NEF or Fuji RX X-ray film. For quantification purposes, the membranes were exposed to phosphor screen for 1 to 4 h, and the exposed screens were analyzed in a Phosphorlmger (Molecular Dynamics) using “Image-quant” software. To obtain mean values, the units (counts) obtained from different experiments were normalized to an internal control (counts present in control-treated sample).
Confirmation of differential expression of Cyr61. To validate the data obtained in microarray, we have patiented the RNA samples from the control and VIIa-treated cells (the same RNA samples that have been used to prepare poly (A) RNA for probe generation in the microarray) to Northern blot analysis and probed with radiolabeled Cyr61 cDNA. […] However, the intensity of hybridization signal was much higher in RNA isolated from VIIa-treated cells (FIG. 11).
Kinetics of Vila-induced expression of Cyr61. To determine the kinetics of Cyr61 expression, quiescent fibroblasts were treated for varying time periods with 5 μg/ml VIIa. Total RNA was extracted and patiented to Northern blot analysis. […] The expression was peaked at about 45 min and thereafter declined to the base level in 2 to 3 h. Since it had been reported that expression of Cyr61 in mouse fibroblasts after stimulation with serum and growth factor was sustained for several hours (up to 8 to 10 h) before repression occurs, we have examined the effect of serum and PDGF on kinetics of Cyr61 expression in quiescent human fibroblasts, WI-38. […] Similar results obtained with serum-induced expression of Cyr61 (data not shown).
Factor VIIa-dose dependent induced expression of Cyr61. To determine dose-dependency of VIIa, quiescent fibroblasts were treated with varying doses FVIIa (0.1 to 5 μg/ml) for 45 min and then total RNA samples from the cells were patiented to Northern blot analysis.
Factor VIIa-catalytic activity is required for Cyr61 induction. To test whether VIIa catalytic activity is required for the induction of Cyr61, WI-38 cells were treated with VIIa and active-site inactivated FVIIa (FVIIai) for 45 min and the expression of Cyr61 was evaluated by Northern blot analysis. […] It is unlikely that VIIa-induced expression of Cyr61 in our experiments was the result of generation of down-stream coagulation factors, FXa and thrombin.
Involvement of transcriptional mechanism for the induction of Cyr61 mMRNA steady-state levels by VIIa. To investigate whether transcription is involved in VIIa-mediated increase in Cyr61 mRNA steady-state levels, quiescent WI-38 cells were incubated with actinomycin-D (10 μg/ml) for 30 min before the addition of VIIa for 45 min. […] This finding indicates a transcriptional mechanism for induction of Cyr61.
To investigate whether de novo protein synthesis is required for the induction of Cyr61 nRNA by VIIa, WI-38 cells were pretreated with the protein synthesis inhibitor cycloheximide before the cells were exposed to VIIa for 45 min.

In test [3] the test system is PLC-γ1 in AG1518 fibroblasts. The test is described as follows: Assay for agonist-induced PLC-γ1 tyrosine phosphorylation. The format is cell-based, human. Particulars: 100 nM FVIIa or FFR-FVIIa one hour; PDGF-BB 2, 10 or 100 ng/ml 5 minutes. How it is done: In order to determine whether the PLC-γ1 isoform, which is activated by certain tyrosine kinase receptors, was responsible for the increased PLC activity induced by FVIIa/TF, tyrosine phosphorylation of PLC-γ1 was studied. Fibroblasts were incubated in the absence or presence of 100 nM FVIIa or FFR-FVIIa for one hour, followed by the stimulation with 0, 2, 10 or 100 ng/ml PDGF-BB. After 5 minutes of incubation, the cells were lysed and PLC-γ1 was immunoprecipitated, separated by SDS-PAGE and immunoblotted with antiphosphotyrosine antibodies. […] Thus, other PLC isoforms than PLC-γ1 are responsible for the increased PLC activity after FVIIa stimulation.
Assay for agonist-induced PLC-γ1 phosphorylation. Semi-confluent cultures of AG1518 were serum starved overnight (approx. 20 hours) in medium containing 0.1% FBS, and then incubated in the absence or presence of 100 nM FVIIa or FFR-FVIIa for one hour followed by incubation with 0, 2, 10 or 100 ng/ml PDGF-BB for 5 minutes at 37° C. […]

Setting [4] is: 100 nM FVIIa, 0.1 ng/ml PDGF-BB.

“Also recorded” adds a separate entry of the source. Starred links: 1 amine or outer side, 2 acyl side, 3 side chain; linkers in the order of their positions; H or OH if unused. Positions of bridges follow the written chain, without caps; N, C: chain ends. Non-standard residues stand in square brackets, D forms with d. Residues, ends and D or L forms follow the SMILES beside them. Chains are numbered I, II in the order given. Actinocin(9to1) = Cc1c2oc3c(C)ccc(C(=O)[*:1])c3nc-2c(C(=O)[*:2])c(N)c1=O; NMeV = CN[C@H](C(=O)O)C(C)C; Sar = CNCC(=O)O

Turning to `COc1ccc2c(c1)CC[C@@H]1[C@@H]2CC[C@]2(C)[C@@H](NCCCCCCN3C(=O)C=CC3=O)CC[C@@H]12` [U73122], in test [1] (setting [4]), the “concentration giving total inhibition of the hyperchemotactic response” value came to 1 µM and the “effect on FVIIa/TF-mediated chemotactic response to PDGF-BB” value is listed as “inhibited the hyperchemotacic response to 0.1 ng/ml PDGF-BB in a dose-dependent way”. Take `COc1ccc2c(c1)CC[C@@H]1[C@@H]2CC[C@]2(C)[C@@H](NCCCCCCN3C(=O)CCC3=O)CC[C@@H]12` [U73343]: the “effect on FVIIa/TF-mediated chemotactic response to PDGF-BB” value in test [1] (setting [4]) was “No effect on chemotaxis”.

For `Cc1c2oc3c(C)ccc(C(=O)N[C@@H]4C(=O)N[C@H](C(C)C)C(=O)N5CCC[C@H]5C(=O)N(C)CC(=O)N(C)[C@@H](C(C)C)C(=O)O[C@@H]4C)c3nc-2c(C(=O)N[C@@H]2C(=O)N[C@H](C(C)C)C(=O)N3CCC[C@H]3C(=O)N(C)CC(=O)N(C)[C@@H](C(C)C)C(=O)O[C@@H]2C)c(N)c1=O` [actinomycin-D] (I: T[dV]P[Sar][NMeV] / II: T[dV]P[Sar][NMeV]; ester I:1-I:C, II:1-II:C; linker I:N-II:N via Actinocin(9to1)), in test [2], the “effect on VIIa-induced expression of Cyr61” value (from here on “effect … of Cyr61”) is listed as “inhibited the stimulator effect of VIIa”.

In the case of `C[C@@H]1C[C@@H]([C@H](O)CC2CC(=O)NC(=O)C2)C(=O)[C@@H](C)C1` [cycloheximide], the “effect … of Cyr61” value in test [2] is “not blocked; also recorded: markedly increased the VIIa-induced Cyr61 mRNA steady-state levels”. Regarding Hirudin, in test [2], the “effect … of Cyr61” value is on record as “failed to abolish”. Besides, the “effect on enhanced migration response (hyperchemotaxis) transduced by FVIIa/TF” value in test [1] (100 nM FVIIa) is “Neither addition of 5 U/ml Hirudin, a specific thrombin inhibitor, had any effect”. Moreover, in test [1], the “effect on migration of fibroblasts in response to PDGF without FVIIa” value is “did not influence”. As to “TAP: Recombinant Tick anticoagulant peptide, specifically blocks the active site of FXa (YNRLCIKPRDWIDECDSNEGGERAYFRNGKGGCDSFWICPEDHTGADYYSSYRDCFNACI; UniProt P17726 1-60, looked up)”, the “effect … of Cyr61” value in test [2] was “failed to abolish”. For the same molecule, the “effect on enhanced migration response (hyperchemotaxis) transduced by FVIIa/TF” value in test [1] (100 nM FVIIa) is “not blocked”. Further, the “effect on migration of fibroblasts in response to PDGF without FVIIa” value in test [1] was “did not influence”. Take thrombin: the “induction of Cyr61 expression (data not shown)” value in test [2] (conditions not given) is “could also induce the expression of Cyr61”.

B1: PDGF-BB: platelet-derived growth factor BB, chemotactic factor for human fibroblasts (protein, UniProt P01127 82-190, looked up)
Platelet-derived growth …: SLGSLTIAEPAMIAECKTRTEVFEISRRLIDRTNANFLVWPPCVEVQRCSGCCNNRNVQCRPTQVQLRPVQVRKIEIVRKKPIFKKATVTLEDHLACKCETVAAARPVT
For B1, in test [2] (PDGF-BB 10 ng/ml), the “kinetics of Cyr61 expression upon stimulation” value is “expressed only transiently” and the “time to full repression of Cyr61 after addition of stimuli” value was found to be 2 h. The “tyrosine phosphorylation of PLC-γ1, agent alone” value in test [3] is “significant increase in tyrosine phosphorylation of PLC-γ1”.
